Reference: patent US11447471B2, “α,β-unsaturated amide compound” (KYOWA KIRIN CO., LTD., priority 2017, dated 2022)

Experiments:
Format in all cases: cell-based
[1] = system: NCI-H226 cells; test: Cell growth inhibitory effect on human mesothelioma cell line (cell counting kit 8, 6 days); settings: NCI-H226, 144 h
Source text: (§1) NCI-H226 cells, a human mesothelioma cell line (ATCC, CRL-5826), NCI-H322 cells, a human lung cancer cell line (the European Collection of Authenticated Cell Cultures, 95111734), OUTOKO cells, a human ovarian cancer cell line (JCRB cell bank, KRB1048) and […] were each subcultured by keeping the cell density under 80% in a RPMI1640 culture medium with 10% fetal bovine serum (FBS). NCI-H226 cells, NCI-H322 cells and SSP-25 cells were each suspended in the RPMI1640 culture medium mentioned above, and plated to a 96-well flat-bottom plate at 500 cells/well in each well, and incubated at 37° C. in an incubator with 5% CO2 for one day. After the incubation, the evaluation of cell growth inhibitory activity was started. OVTOKO cells were suspended in the RPMI1640 culture medium mentioned above, and plated to a 96-well flat-bottom plate at 250 cells/well in each well, and incubated it at 37° C. in an incubator with 5% CO2 for one day. After the incubation, the evaluation of the cell growth inhibitory activity was started. The next day, a test compound was serially diluted to 5 times of its final concentration in the RPM11640 culture medium mentioned above, and the diluted solution was added to each well. In this case, the final concentration of DMSO in each well was adjusted to 0.1%. After the test compound was added, cells were incubated at 37° C. in an incubator with 5% CO2 for 6 days. At the addition of the test compound and 6 days after the addition, the cell counting measurement was performed using a cell counting kit 8 (made by DOJINDO) according to a protocol equivalent to DOJINDO's recommendation. A reagent contained in the kit was added to each plate and color reaction was performed for 2 or 3 hours at 37° C. in an incubator with 5% CO2. After the reaction, an absorbance at wavelength of 450 nm was measured using a microplate reader. A growth inhibition rate was calculated according to the following formula, from which the concentration of a test compound at which cell growth was inhibited by 50% (GI50 value) was determined.

[2] = system: NCI-H322 cells; test: Cell growth inhibitory effect on human lung cancer cell line (cell counting kit 8, 6 days); settings: 144 h; human lung cancer cell line NCI-H322, 6 days incubation
Source text: as §1

[3] = system: HuH28 cells; test: Cell growth inhibitory effect on human liver cancer cell line (cell counting kit 8, 6 days); settings: 144 h; human liver cancer cell line HuH28, 6 days incubation
Source text: as §1

[4] = system: OVTOKO cells; test: Cell growth inhibitory effect on human ovarian cancer cell line (cell counting kit 8, 6 days); settings: 144 h, 6 days incubation
Outline: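 Cells in RPMI1640 with 10% FBS plated at 500 cells/well (OVTOKO 250/well) and cultured one day at 37° C, 5% CO2. Serially diluted compound added (final DMSO 0.1%) for 6 days; viable cells measured at addition and day 6 with CCK-8, absorbance 450 nm. GI50 derived from growth inhibition rate.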

A GI50 [1] of under 100 nM, a GI50 [2] of under 1000 nM and a GI50 [3] of under 3000 nM were found for C=CC(=O)NCc1ccc(Oc2ccc(C(F)(F)F)c(F)c2)c2nc(C)oc12 [Compound 277, N-([4-{3-Fluoro-4-(trifluoromethyl)phenoxy}-2-methylbenzo[d]oxazol-7-yl]methyl)acrylamide] in this work. The GI50 [4] was at most 3000 nM.

A GI50 [1] of under 100 nM, a GI50 [2] of under 1000 nM and a GI50 [3] of under 3000 nM were found for C=CC(=O)NCc1ccc(Oc2ccc(Cl)cc2)c2nc(C)oc12 [Compound 281, N-[{4-(4-Chlorophenoxy]-2-methylbenzo[d]oxazol-7-yl}methyl)acrylamide] in this work. It also gave a GI50 [4] of at most 3000 nM.

A GI50 [1] of under 100 nM, a GI50 [2] of under 1000 nM and a GI50 [3] of under 3000 nM were found for C=CC(=O)N[C@@H]1CC[C@H](Oc2ccc(C(F)(F)F)c(F)c2)c2nc(Cl)ccc21 (relative stereo) [Compound 187, cis-N-[2-Chloro-8-{3-fluoro-4-(trifluoromethyl)phenoxy}-5,6,7,8-tetrahydroquinolin-5-yl]acrylamide] in this work. The GI50 [4] was at most 3000 nM.

A GI50 [1] of under 100 nM, a GI50 [2] of under 1000 nM and a GI50 [3] of under 3000 nM were found for C=CC(=O)NCc1ccc(Oc2ccc(C(F)(F)F)nc2)c2sc(C)nc12 [Compound 287, N-{(2-Methyl-7-[{6-(trifluoromethyl)pyridin-3-yl}oxy]benzo[d]thiazol-4-yl)methyl}acrylamide] in this work. The GI50 [4] was at most 3000 nM.

A GI50 [1] of under 100 nM, a GI50 [2] of under 1000 nM and a GI50 [3] of under 3000 nM were found for C=CC(=O)NCc1ccc(Oc2ccc(C(F)(F)F)cn2)c2sc(C)nc12 [Compound 288, N-{(2-Methyl-7-[{5-(trifluoromethyl)pyridin-2-yl}oxy]benzo[d]thiazol-4-yl)methyl}acrylamide] in this work. For the same molecule, the GI50 [4] was at most 3000 nM.

A GI50 [1] of 100 to 1000 nM, a GI50 [2] of under 1000 nM and a GI50 [3] of under 3000 nM were found for C=CC(=O)NCc1ccc(C(O)c2ccc(C(F)(F)F)cc2)c2nc(C)oc12 (centres unmarked) [Compound 268, N-{(4-[Hydroxy{4-(trifluoromethyl)phenyl}methyl]-2-methylbenzo[d]oxazol-7-yl)methyl}acrylamide] in this work. The GI50 [4] was at most 3000 nM.

A GI50 [1] of under 100 nM, a GI50 [2] of under 1000 nM and a GI50 [3] of under 3000 nM were found for C=CC(=O)NCc1ccc(Oc2ccc(C(F)(F)F)nc2)c2oc(C)nc12 [Compound 283, N-{(2-Methyl-7-[{6-(trifluoromethyl)pyridin-3-yl}oxy]benzo[d]oxazol-4-yl)methyl}acrylamide] in this work. For the same molecule, the GI50 [4] was at most 3000 nM.

A GI50 [1] of under 100 nM, a GI50 [2] of under 1000 nM and a GI50 [3] of under 3000 nM were found for C=CC(=O)N[C@@H]1CC[C@H](Oc2ccc(C(F)(F)F)cn2)c2nc(Cl)ccc21 (relative stereo) [Compound 189, cis-N-(2-Chloro-8-[{5-(trifluoromethyl)pyridin-2-yl}oxy]-5,6,7,8-tetrahydroquinolin-5-yl)acrylamide] in this work. For the same molecule, the GI50 [4] was at most 3000 nM.

A GI50 [1] of under 100 nM, a GI50 [2] of under 1000 nM and a GI50 [3] of under 3000 nM were found for C=CC(=O)N[C@@H]1CC[C@H](Oc2ccc(C(F)(F)F)cc2)c2nc(OC)ccc21 (relative stereo) [Compound 179, cis-N-[2-Methoxy-8-{4-(trifluoromethyl)phenoxy}-5,6,7,8-tetrahydroquinolin-5-yl]acrylamide] in this work. For the same molecule, the GI50 [4] was at most 3000 nM.

A GI50 [1] of under 100 nM, a GI50 [2] of under 1000 nM and a GI50 [3] of under 3000 nM were found for C=CC(=O)NCc1ccc(Oc2ccc(C(F)(F)F)nc2)c2nc(C)sc12 [Compound 285, N-{(2-Methyl-4-[{6-(trifluoromethyl)pyridin-3-yl}oxy]benzo[d]thiazol-7-yl)methyl}acrylamide] in this work. It also gave a GI50 [4] of at most 3000 nM.

A GI50 [1] of under 100 nM, a GI50 [2] of under 1000 nM and a GI50 [3] of under 3000 nM were found for C=CC(=O)NCc1ccc(Oc2ccc(C(F)(F)F)cn2)c2nc(C)sc12 [Compound 286, N-{(2-Methyl-4-[{5-(trifluoromethyl)pyridin-2-yl}oxy]benzo[d]thiazol-7-yl)methyl}acrylamide] in this work. For the same molecule, the GI50 [4] was at most 3000 nM.

A GI50 [1] of under 100 nM, a GI50 [2] of under 1000 nM and a GI50 [3] of under 3000 nM were found for C=CC(=O)NCc1ccc(OCc2ccccc2)c2nc(C)oc12 [Compound 282, N-[{4-(Benzyloxy)-2-methylbenzo[d]oxazol-7-yl}methyl]acrylamide] in this work. It also gave a GI50 [4] of at most 3000 nM.

A GI50 [1] of under 100 nM, a GI50 [2] of under 1000 nM and a GI50 [3] of under 3000 nM were found for C=CC(=O)NCc1ccc(Oc2ccc(C(F)(F)F)cc2)c2nc(CC)oc12 [Compound 244, N-([2-Ethyl-4-{4-(trifluoromethyl)phenoxy}benzo[d]oxazol-7-yl]methyl)acrylamide] in this work. For the same molecule, the GI50 [4] was at most 3000 nM.

A GI50 [1] of under 100 nM, a GI50 [2] of under 1000 nM and a GI50 [3] of under 3000 nM were found for C=CC(=O)NCc1ccc(Oc2ccc(OC)cc2)c2nc(C)oc12 [Compound 280, N-[{4-(4-Methoxyphenoxy]-2-methylbenzo[d]oxazol-7-yl}methyl)acrylamide] in this work. The GI50 [4] was at most 3000 nM.

A GI50 [1] of under 100 nM, a GI50 [2] of under 1000 nM and a GI50 [3] of under 3000 nM were found for C=CC(=O)NC1CC[C@H](Oc2cccc(Cl)c2)c2ncccc21 (stereo in doubt) [Compound 68, cis-N-{8-(3-Chlorophenoxy)-5,6,7,8-tetrahydroquinolin-5-yl}acrylamide] in this work. It also gave a GI50 [4] of at most 3000 nM.

A GI50 [1] of under 100 nM, a GI50 [2] of under 1000 nM and a GI50 [3] of under 3000 nM were found for C=CC(=O)NC1CCOc2c1ccc(Oc1ccc(C(F)(F)F)nc1)c2OC (centres unmarked) [Compound 163, N-(8-Methoxy-7-[{6-(trifluoromethyl)pyridin-3-yl}oxy]chroman-4-yl)acrylamide] in this work. The GI50 [4] was at most 3000 nM.

A GI50 [1] of under 100 nM, a GI50 [2] of under 1000 nM and a GI50 [3] of under 3000 nM were found for C=CC(=O)NCc1ccc(Oc2cccc(C(F)(F)F)c2)c2nc(C)oc12 [Compound 279, N-([2-Methyl-4-{3-(trifluoromethyl)phenoxy}benzo[d]oxazol-7-yl]methyl) acrylamide] in this work. It also gave a GI50 [4] of at most 3000 nM.

A GI50 [1] of under 100 nM, a GI50 [2] of under 1000 nM and a GI50 [3] of under 3000 nM were found for C=CC(=O)NCc1ccc(Nc2ccc(C(F)(F)F)cc2)c2nc(C)oc12 [Compound 270, N-{(2-Methyl-4-[{4-(trifluoromethyl)phenyl}amino]benzo[d]oxazol-7-yl)methyl}acrylamide] in this work. It also gave a GI50 [4] of at most 3000 nM.

A GI50 [1] of 100 to 1000 nM, a GI50 [2] of under 1000 nM and a GI50 [3] of under 3000 nM were found for C=CC(=O)NCc1ccc(N(C)c2ccc(C(F)(F)F)cc2)c2nc(C)oc12 [Compound 269, N-{(2-Methyl-4-[methyl{4-(trifluoromethyl)phenyl}amino]benzo[d]oxazol-7-yl)methyl}acrylamide] in this work. It also gave a GI50 [4] of at most 3000 nM.

A GI50 [1] of 100 to 1000 nM, a GI50 [2] of under 1000 nM and a GI50 [3] of under 3000 nM were found for C=CC(=O)NCc1ccc(Oc2ccc(C#N)cc2)c2nc(C)oc12 [Compound 278, N-[{4-(4-Cyanophenoxy]-2-methylbenzo[d]oxazol-7-yl}methyl)acrylamide] in this work. For the same molecule, the GI50 [4] was at most 3000 nM.

A GI50 [1] of under 100 nM, a GI50 [2] of under 1000 nM and a GI50 [3] of under 3000 nM were found for C=CC(=O)NCc1ccc(Oc2ccc(C(F)(F)F)cn2)c2nc(C)oc12 [Compound 250, N-{(2-Methyl-4-[{5-(trifluoromethyl)pyridin-2-yl}oxy]benzo[d]oxazol-7-yl)methyl}acrylamide] in this work. The GI50 [4] was at most 3000 nM.

A GI50 [1] of under 100 nM, a GI50 [2] of under 1000 nM and a GI50 [3] of under 3000 nM were found for C=CC(=O)N[C@@H]1CC[C@H](Oc2ccc(C(F)(F)F)cc2)c2nc(C3CC3)ccc21 (relative stereo) [Compound 185, cis-N-[2-Cyclopropyl-8-{4-(trifluoromethyl)phenoxy}-5,6,7,8-tetrahydroquinolin-5-yl]acrylamide] in this work. For the same molecule, the GI50 [4] was at most 3000 nM.

A GI50 [1] of under 100 nM, a GI50 [2] of under 1000 nM and a GI50 [3] of under 3000 nM were found for C=CC(=O)NCc1ccc(Oc2ccc(C(F)(F)F)cc2)c2nc(C)sc12 [Compound 256, N-([2-Methyl-4-{4-(trifluoromethyl)phenoxy}benzo[d]thiazol-7-yl]methyl)acrylamide] in this work. It also gave a GI50 [4] of at most 3000 nM.
